Assay results as given in US6025375A, “4,5-diaryloxazole derivatives” (Fujisawa Pharmaceutical Co., Ltd., priority 1993, dated 2000).

Columns and labels:
[1] = test system: human platelet aggregation induced by ADP; assay: Inhibition of human platelet aggregation induced by ADP; format: cell-based; settings: 3.2 × 10^-7 M, platelet rich plasma, ADP 2.5 μM, mean ± S.E.
Experimental: i) Inhibition of human platelet aggregation induced by ADP
Isomer C obtained in Example 2.
Human blood was obtained from healthy volunteers and mixed with 1/10 volume of 3.8% sodium citrate, pH 7.4. The citrate blood was centrifuged at 150×g for 10 minutes and the platelet rich plasma (PRP) was removed. The remaining blood was centrifuged for a further 10 minutes at 1500×g to prepare the platelet poor plasma (PPP), which was used as a reference for platelet aggregation. Aggregation studies were carried out using HEMATRACER 801 (NBS, Japan), a 8 channel aggregometer. 25 μl sample solution and 225 μl of PRP were mixed and stirred at 1000 rpm for 2 minutes at 37° C. Aggregation was induced by ADP solution at the final concentration of 2.5 μM.

[2] = test system: mean arterial blood pressure; assay: Effect on mean arterial blood pressure in conscious rats; format: in vivo; settings: 3.2 mg/kg, orally, suspended in 0.5% methyl cellulose; conscious male Sprague-Dawley rats
Experimental: ii) Effect on mean arterial blood pressure in conscious rats
Sodium [3-[[(1S)-2-(4,5-diphenyloxazol-2-yl)-2-cyclohexen-1-yl]methyl]phenoxy]acetate
Male Sprague-Dawley rats, aged 8-9 weeks, were anesthetized with diethyl ether and a polyethylene cannula filled with heparin solution was inserted into the femoral artery of the rats to measure mean blood pressure. Mean blood pressure was measured with a pressure transducer and recorded on a polygraph. Two hours after operation, the test compound suspended in 0.5% methyl cellulose was administered orally in a volume of 5 ml/kg. Oral hypotensive effect of the test compound was expressed as the maximal decrease (R max). Briefly, R max was expressed as maximal % change compared to mean blood pressure prior to the administration of the test compound.

Row | SMILES | inhibition at 0.32 µM [1] [%] | R max (%): maximal % change (decrease) in mean blood pressure compared to that prior to administration [2] [%]
1 | O=C(O)COc1cccc(CC2CCCCC2c2nc(-c3ccccc3)c(-c3ccccc3)o2)c1 (single isomer, unassigned) [Isomer C, cis- or trans-1-[(3-carboxymethoxyphenyl)methyl]-2-(4,5-diphenyloxazol-2-yl)cyclohexane] | 100 ± 0.4 | –
2 | O=C(O)COc1cccc(C[C@@H]2CCCC=C2c2nc(-c3ccccc3)c(-c3ccccc3)o2)c1 [(+)-Sodium [3-[[(1S)-2-(4,5-diphenyloxazol-2-yl)-2-cyclohexen-1-yl]methyl]phenoxy] acetate] | – | 31.3
